The results in this text go back to BindingDB's records for doi:10.1021/cc100073a (Amgen, 2010).

What all share (test): PHD Enzymatic Assay
One assay concerns the target Egl nine homolog 1 (Homo sapiens, UniProt Q9GZT9). On the procedure: (§1) PHD1,2,3 activity was measured utilizing homogeneous time-resolved fluroescence energy transfer techology by detecting the trans-4-hydroxylatio of HIF-1alpha residue pro564 in biotin-hHIR-1alpha(558-574)(Biotin-DLEMLAPYIPMDDDFQL)peptide substrate resulting in a recognition by the Europium-tagged Von Hippel Lindau, Elongin B and Dlongin C heterotrimeric complex (VCB-Eu complex)

In another assay the target is Prolyl hydroxylase EGLN2 (Homo sapiens, UniProt Q96KS0). On the procedure: as §1
In another assay the target is Prolyl hydroxylase EGLN3 (Homo sapiens, UniProt Q9H6Z9). Here is the method: as §1

Values joined by “and” are separate entries in the source; they are usually repeats but may differ in a detail not shown here. Equal entries are not always repeated.

Prolyl hydroxylase EGLN2, sequence (Q96KS0 whole entry): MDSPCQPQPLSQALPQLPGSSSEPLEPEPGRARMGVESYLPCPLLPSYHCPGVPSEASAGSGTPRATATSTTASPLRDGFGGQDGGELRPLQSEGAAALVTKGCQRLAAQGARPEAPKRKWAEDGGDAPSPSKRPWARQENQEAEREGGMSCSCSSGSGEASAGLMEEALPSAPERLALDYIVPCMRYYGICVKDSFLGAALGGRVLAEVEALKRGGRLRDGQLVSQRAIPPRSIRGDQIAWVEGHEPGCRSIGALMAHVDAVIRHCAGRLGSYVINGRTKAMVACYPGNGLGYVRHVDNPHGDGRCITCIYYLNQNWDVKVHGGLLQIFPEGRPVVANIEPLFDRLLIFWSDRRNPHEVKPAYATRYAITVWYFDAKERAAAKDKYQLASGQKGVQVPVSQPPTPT
Prolyl hydroxylase EGLN3, sequence (Q9H6Z9 whole entry): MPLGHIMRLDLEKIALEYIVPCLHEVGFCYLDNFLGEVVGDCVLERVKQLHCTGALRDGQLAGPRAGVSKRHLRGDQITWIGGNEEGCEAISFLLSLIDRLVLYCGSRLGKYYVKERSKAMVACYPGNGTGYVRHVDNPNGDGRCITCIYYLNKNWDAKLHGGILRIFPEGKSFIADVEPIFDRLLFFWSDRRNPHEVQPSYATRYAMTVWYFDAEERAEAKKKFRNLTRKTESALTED
Egl nine homolog 1, sequence (Q9GZT9 whole entry): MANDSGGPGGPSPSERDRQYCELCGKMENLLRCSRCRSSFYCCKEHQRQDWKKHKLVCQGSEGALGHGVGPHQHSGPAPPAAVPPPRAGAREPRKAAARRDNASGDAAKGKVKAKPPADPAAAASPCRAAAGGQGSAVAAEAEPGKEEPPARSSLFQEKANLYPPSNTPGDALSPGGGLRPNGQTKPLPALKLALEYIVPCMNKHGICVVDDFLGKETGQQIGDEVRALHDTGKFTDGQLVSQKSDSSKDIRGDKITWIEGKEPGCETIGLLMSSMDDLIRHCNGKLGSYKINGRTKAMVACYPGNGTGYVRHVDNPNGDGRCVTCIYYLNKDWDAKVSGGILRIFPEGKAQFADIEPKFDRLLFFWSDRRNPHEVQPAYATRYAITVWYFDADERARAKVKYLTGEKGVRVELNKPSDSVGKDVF

As for `CC(=O)NCc1ccc2c(c1)c(O)c(C(=O)NCC(=O)O)c(=O)n2C` [PHD Inhibitor, 5], it took 546 nM to reach half-maximal inhibition against Egl nine homolog 1 (IC50).

Consider `CC(=O)N[C@@H](Cc1ccccc1)C(=O)NCc1ccc2c(c1)c(O)c(C(=O)NCC(=O)O)c(=O)n2C` [PHD Inhibitor, 8{1}], for which, on Egl nine homolog 1, inhibition was half-maximal at 482 nM (IC50).

In turn, `CC(=O)N[C@H](Cc1ccccc1)C(=O)NCc1ccc2c(c1)c(O)c(C(=O)NCC(=O)O)c(=O)n2C` [PHD Inhibitor, 8{2}] gave a half-inhibitory concentration (IC50) at Egl nine homolog 1 of 112 nM.

`CC(=O)N[C@H](CC(C)C)C(=O)NCc1ccc2c(c1)c(O)c(C(=O)NCC(=O)O)c(=O)n2C` [PHD Inhibitor, 8{3}] showed an IC50 against Egl nine homolog 1 of 521 nM.

`CC(=O)NCC(=O)NCc1ccc2c(c1)c(O)c(C(=O)NCC(=O)O)c(=O)n2C` [PHD Inhibitor, 8{4}]: the IC50 at Egl nine homolog 1 was found to be 293 nM.

`CC(=O)N[C@@H](CO)C(=O)NCc1ccc2c(c1)c(O)c(C(=O)NCC(=O)O)c(=O)n2C` [PHD Inhibitor, 8{5}] came in with an IC50 against Egl nine homolog 1 of 265 nM.

`CC(=O)N[C@@H](CC(=O)O)C(=O)NCc1ccc2c(c1)c(O)c(C(=O)NCC(=O)O)c(=O)n2C` [PHD Inhibitor, 8{6}] yielded an IC50 at Egl nine homolog 1 of 138 nM.

On Egl nine homolog 1, `CC(=O)N[C@@H](CCCCN)C(=O)NCc1ccc2c(c1)c(O)c(C(=O)NCC(=O)O)c(=O)n2C` [PHD Inhibitor, 8{7}] gave an IC50 of 409 nM.

With `CC(=O)N[C@@H](Cc1ccc2ccccc2c1)C(=O)N[C@@H](Cc1ccccc1)C(=O)NCc1ccc2c(c1)c(O)c(C(=O)NCC(=O)O)c(=O)n2C` [PHD Inhibitor, 12{1,1,2}], the IC50 against Egl nine homolog 1 is 35 nM; against Prolyl hydroxylase EGLN2 it was 4.3 nM; at Prolyl hydroxylase EGLN3, 4.5 nM.

Consider `Cn1c(=O)c(C(=O)NCC(=O)O)c(O)c2cc(CNC(=O)[C@H](Cc3ccccc3)NC(=O)[C@H](Cc3ccccc3)NC(=O)CCN3CCOCC3)ccc21` [PHD Inhibitor, 12{1,5,3}], for which the results for the half-maximal inhibitory concentration (IC50) against Egl nine homolog 1, against Prolyl hydroxylase EGLN2 and at Prolyl hydroxylase EGLN3 were 2920 nM, 95 nM and 165 nM, respectively.

Take `CC(=O)N[C@H](Cc1ccc2ccccc2c1)C(=O)N[C@H](Cc1ccccc1)C(=O)NCc1ccc2c(c1)c(O)c(C(=O)NCC(=O)O)c(=O)n2C` [PHD Inhibitor, 12{2,1,2}]: the IC50 at Egl nine homolog 1 was 93.8 nM; against Prolyl hydroxylase EGLN2, 13.5 nM; on Prolyl hydroxylase EGLN3 it was 6.4 nM.

Turning to `Cn1c(=O)c(C(=O)NCC(=O)O)c(O)c2cc(CNC(=O)[C@@H](Cc3ccccc3)NC(=O)[C@@H](Cc3ccc4ccccc4c3)NC(=O)C(C)(C)C)ccc21` [PHD Inhibitor, 12{2,1,4}], the results for the IC50 against Egl nine homolog 1, against Prolyl hydroxylase EGLN2 and against Prolyl hydroxylase EGLN3 were 308 nM, 60.8 nM and 18.8 nM, respectively.

As for `Cn1c(=O)c(C(=O)NCC(=O)O)c(O)c2cc(CNC(=O)[C@@H](Cc3ccccc3)NC(=O)C[C@H](Cc3ccccc3)NC(=O)c3ccccc3)ccc21` [PHD Inhibitor, 12{2,3,1}], the IC50 at Egl nine homolog 1 is 1560 nM; on Prolyl hydroxylase EGLN2, 49 nM; at Prolyl hydroxylase EGLN3, 40 nM.

In the case of `CC(=O)N[C@H](Cc1ccccc1)C(=O)N[C@H](Cc1ccccc1)C(=O)NCc1ccc2c(c1)c(O)c(C(=O)NCC(=O)O)c(=O)n2C` [PHD Inhibitor, 12{2,3,2}], the IC50 against Egl nine homolog 1 is 37.4 nM and 90.2 nM; against Prolyl hydroxylase EGLN2, 7.2 nM and 12.2 nM; against Prolyl hydroxylase EGLN3 it was 11.7 nM and 13.5 nM.

`Cn1c(=O)c(C(=O)NCC(=O)O)c(O)c2cc(CNC(=O)[C@@H](Cc3ccccc3)NC(=O)[C@@H](Cc3ccccc3)NC(=O)C(C)(C)C)ccc21` [PHD Inhibitor, 12{2,3,4}]: the IC50 is 86.4 nM and 104 nM against Egl nine homolog 1; 12.9 nM and 14.6 nM at Prolyl hydroxylase EGLN2; 12.6 nM and 13.2 nM against Prolyl hydroxylase EGLN3.

Take `Cn1c(=O)c(C(=O)NCC(=O)O)c(O)c2cc(CNC(=O)[C@@H](Cc3ccccc3)NC(=O)[C@@H](Cc3ccccc3)NC(=O)c3ccccc3)ccc21` [PHD Inhibitor, 12{2,4,1}]: the IC50 on Prolyl hydroxylase EGLN2 was 22 nM and 8.5 nM; against Prolyl hydroxylase EGLN3, 20 nM and 5.3 nM.

On to `CC(=O)N[C@@H](Cc1ccccc1)C(=O)N[C@H](Cc1ccccc1)C(=O)NCc1ccc2c(c1)c(O)c(C(=O)NCC(=O)O)c(=O)n2C` [PHD Inhibitor, 12{2,5,2}], for which the 50% inhibitory concentration (IC50) at Egl nine homolog 1 turned out to be 44.8 nM; against Prolyl hydroxylase EGLN2, 7.6 nM; against Prolyl hydroxylase EGLN3, 8.9 nM.

Regarding `CC(=O)N[C@@H](CC(C)C)C(=O)N[C@H](Cc1ccccc1)C(=O)NCc1ccc2c(c1)c(O)c(C(=O)NCC(=O)O)c(=O)n2C` [PHD Inhibitor, 12{2,6,2}], the IC50 against Egl nine homolog 1 stood at 67.5 nM; on Prolyl hydroxylase EGLN2, 11 nM; on Prolyl hydroxylase EGLN3, 16.2 nM.

For `CC(C)C[C@@H](NC(=O)C(C)(C)C)C(=O)N[C@H](Cc1ccccc1)C(=O)NCc1ccc2c(c1)c(O)c(C(=O)NCC(=O)O)c(=O)n2C` [PHD Inhibitor, 12{2,6,4}], the IC50 against Egl nine homolog 1 stood at 113 nM; against Prolyl hydroxylase EGLN2, 14.5 nM; against Prolyl hydroxylase EGLN3, 16.8 nM.

Consider `CC(C)C[C@H](NC(=O)[C@H](Cc1cccc2ccccc12)NC(=O)C(C)(C)C)C(=O)NCc1ccc2c(c1)c(O)c(C(=O)NCC(=O)O)c(=O)n2C` [PHD Inhibitor, 12{3,1,4}], for which the values for the IC50 against Egl nine homolog 1, at Prolyl hydroxylase EGLN2 and against Prolyl hydroxylase EGLN3 were 1100 nM, 32 nM and 77 nM, respectively.

Consider `CC(=O)N[C@@H](Cc1ccc2ccccc2c1)C(=O)NCC(=O)NCc1ccc2c(c1)c(O)c(C(=O)NCC(=O)O)c(=O)n2C` [PHD Inhibitor, 12{4,1,2}], for which the IC50 on Egl nine homolog 1 is 41.9 nM; against Prolyl hydroxylase EGLN2 it was 5.1 nM; against Prolyl hydroxylase EGLN3, 13.5 nM.
